The record followed here is ChEMBL document CHEMBL5465560, “Selectivity Literature for EUbOPEN Chemogenomic Library” (2024).

For assay [1], the target named is Ribosomal protein S6 kinase alpha-5 (Homo sapiens) (UniProt O75582). The assay can be described thus: Selectivity interaction (KinomeScan (DiscoverX)) EUB0000092b RPS6KA5. The settings on record: at 10 µM.
The target of assay [2] is T1, Serine/threonine-protein kinase Nek1 (Homo sapiens) (UniProt Q96PY6).
T1 sequence (whole entry): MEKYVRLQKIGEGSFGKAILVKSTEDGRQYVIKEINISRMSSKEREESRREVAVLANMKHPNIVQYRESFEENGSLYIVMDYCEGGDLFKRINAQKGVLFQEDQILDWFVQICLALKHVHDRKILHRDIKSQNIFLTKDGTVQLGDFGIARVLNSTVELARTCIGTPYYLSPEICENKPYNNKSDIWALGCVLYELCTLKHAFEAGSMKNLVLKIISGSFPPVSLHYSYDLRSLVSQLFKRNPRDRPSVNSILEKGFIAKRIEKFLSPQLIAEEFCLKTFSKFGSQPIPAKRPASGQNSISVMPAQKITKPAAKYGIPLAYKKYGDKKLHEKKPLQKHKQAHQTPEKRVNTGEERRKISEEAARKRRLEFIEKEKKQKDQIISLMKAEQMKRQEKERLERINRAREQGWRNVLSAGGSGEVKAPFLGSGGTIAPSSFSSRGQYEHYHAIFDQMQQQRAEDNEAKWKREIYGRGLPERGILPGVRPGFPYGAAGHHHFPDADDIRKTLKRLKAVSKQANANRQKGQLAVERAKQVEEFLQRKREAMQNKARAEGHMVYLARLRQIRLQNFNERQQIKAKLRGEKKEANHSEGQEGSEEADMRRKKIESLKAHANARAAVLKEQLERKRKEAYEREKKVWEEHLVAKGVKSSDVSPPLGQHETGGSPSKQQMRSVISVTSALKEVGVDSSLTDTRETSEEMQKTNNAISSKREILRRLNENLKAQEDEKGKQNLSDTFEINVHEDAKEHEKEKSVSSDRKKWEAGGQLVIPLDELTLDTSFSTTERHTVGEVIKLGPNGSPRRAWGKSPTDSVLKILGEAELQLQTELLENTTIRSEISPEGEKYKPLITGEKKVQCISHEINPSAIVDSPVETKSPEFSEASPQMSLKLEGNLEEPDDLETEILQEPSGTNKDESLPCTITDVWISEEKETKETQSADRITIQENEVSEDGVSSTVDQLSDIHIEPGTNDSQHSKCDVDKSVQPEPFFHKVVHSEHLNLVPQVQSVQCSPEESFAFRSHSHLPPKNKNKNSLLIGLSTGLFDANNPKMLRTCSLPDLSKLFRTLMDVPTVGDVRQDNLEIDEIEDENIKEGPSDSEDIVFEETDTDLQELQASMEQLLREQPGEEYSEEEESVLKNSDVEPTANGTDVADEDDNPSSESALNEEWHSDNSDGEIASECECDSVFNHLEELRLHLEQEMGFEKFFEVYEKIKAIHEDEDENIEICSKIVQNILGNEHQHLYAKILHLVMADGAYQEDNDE
The assay can be described thus: Selectivity interaction (Kinase panel (Z-LYTE Assay)) EUB0001632a NEK1. As to conditions: at 10 µM.

Assay [3] addresses Cyclin-dependent kinase 8 (Homo sapiens, UniProt P49336). The assay can be described thus: Selectivity interaction (Kinase panel (Invitrogen)) EUB0000639a CDK8. The settings on record: at 200 nM.
Assay [4] deals with T2, MAP kinase-activated protein kinase 5 (Homo sapiens) (UniProt Q8IW41).
T2 sequence (whole entry): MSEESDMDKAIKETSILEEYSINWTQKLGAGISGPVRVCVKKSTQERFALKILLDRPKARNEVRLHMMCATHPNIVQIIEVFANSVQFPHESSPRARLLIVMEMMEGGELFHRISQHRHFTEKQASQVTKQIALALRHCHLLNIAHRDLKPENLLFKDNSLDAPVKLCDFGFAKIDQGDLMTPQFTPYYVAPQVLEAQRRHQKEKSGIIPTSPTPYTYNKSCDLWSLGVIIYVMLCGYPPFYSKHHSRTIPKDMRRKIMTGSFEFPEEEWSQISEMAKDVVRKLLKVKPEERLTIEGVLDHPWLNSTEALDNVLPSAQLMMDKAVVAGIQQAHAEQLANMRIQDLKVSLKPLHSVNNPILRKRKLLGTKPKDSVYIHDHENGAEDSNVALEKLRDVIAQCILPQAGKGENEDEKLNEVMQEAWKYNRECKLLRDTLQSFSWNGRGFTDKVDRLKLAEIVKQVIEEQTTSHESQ
The assay can be described thus: Selectivity interaction (KinomeScan (DiscoverX)) EUB0000229b MAPKAPK5. As to conditions: at 10 µM.

Assay [5] concerns the target Casein kinase I isoform delta (Homo sapiens, UniProt P48730). In words: Selectivity interaction (Kinase panel (DSF assay)) EUB0001559a CSNK1D.
The target in assay [6] is Rho-associated protein kinase 2 (Homo sapiens, UniProt O75116). The assay can be described thus: Selectivity interaction (KinomeScan (DiscoverX)) EUB0000595a ROCK2. The settings on record: at 10 µM.
In assay [7] the target is Mitogen-activated protein kinase 10 (Homo sapiens, UniProt P53779). In words: Selectivity interaction (KinomeScan (DiscoverX)) EUB0001619a MAPK10. As to conditions: at 1 µM.
For assay [8], the target named is T3, Serine/threonine-protein kinase D3 (Homo sapiens) (UniProt O94806).
T3 sequence (whole entry): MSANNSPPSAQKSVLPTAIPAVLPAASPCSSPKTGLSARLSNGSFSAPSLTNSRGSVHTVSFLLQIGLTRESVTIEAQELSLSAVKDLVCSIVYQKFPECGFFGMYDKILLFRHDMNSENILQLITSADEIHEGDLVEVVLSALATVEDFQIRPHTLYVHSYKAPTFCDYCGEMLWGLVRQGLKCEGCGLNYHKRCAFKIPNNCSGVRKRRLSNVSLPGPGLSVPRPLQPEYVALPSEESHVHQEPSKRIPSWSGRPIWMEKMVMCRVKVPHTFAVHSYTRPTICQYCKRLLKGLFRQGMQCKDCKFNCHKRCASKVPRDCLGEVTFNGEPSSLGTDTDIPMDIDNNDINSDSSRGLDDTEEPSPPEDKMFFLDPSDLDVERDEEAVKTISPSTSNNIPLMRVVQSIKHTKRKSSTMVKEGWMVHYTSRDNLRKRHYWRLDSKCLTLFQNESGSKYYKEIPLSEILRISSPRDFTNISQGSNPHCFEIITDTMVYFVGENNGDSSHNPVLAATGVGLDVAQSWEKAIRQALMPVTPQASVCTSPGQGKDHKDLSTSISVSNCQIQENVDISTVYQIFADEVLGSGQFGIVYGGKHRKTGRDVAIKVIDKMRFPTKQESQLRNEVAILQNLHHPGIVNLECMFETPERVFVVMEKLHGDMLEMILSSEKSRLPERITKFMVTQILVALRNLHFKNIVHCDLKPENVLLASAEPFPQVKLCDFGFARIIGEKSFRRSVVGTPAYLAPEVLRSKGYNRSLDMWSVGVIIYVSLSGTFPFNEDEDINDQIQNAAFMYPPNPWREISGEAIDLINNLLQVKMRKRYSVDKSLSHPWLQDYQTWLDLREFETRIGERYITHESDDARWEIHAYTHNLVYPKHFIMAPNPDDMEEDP
The assay can be described thus: Selectivity interaction (KinomeScan (DiscoverX)) EUB0001619a PRKD3. The settings on record: at 1 µM.

Sequence of Mitogen-activated protein kinase 10 (P53779 whole entry): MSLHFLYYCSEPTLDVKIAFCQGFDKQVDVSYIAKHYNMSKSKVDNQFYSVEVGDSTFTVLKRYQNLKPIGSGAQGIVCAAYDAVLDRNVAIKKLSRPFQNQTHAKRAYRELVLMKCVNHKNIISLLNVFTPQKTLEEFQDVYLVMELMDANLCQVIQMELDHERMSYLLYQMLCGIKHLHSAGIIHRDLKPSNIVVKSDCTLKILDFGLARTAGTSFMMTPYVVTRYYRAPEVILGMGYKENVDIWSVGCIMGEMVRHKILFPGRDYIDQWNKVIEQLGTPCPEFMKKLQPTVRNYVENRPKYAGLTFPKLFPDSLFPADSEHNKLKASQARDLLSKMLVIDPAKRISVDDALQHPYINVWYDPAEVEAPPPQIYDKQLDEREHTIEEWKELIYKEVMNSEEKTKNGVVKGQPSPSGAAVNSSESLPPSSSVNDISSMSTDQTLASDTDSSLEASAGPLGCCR
Sequence of Rho-associated protein kinase 2 (O75116 whole entry, looked up): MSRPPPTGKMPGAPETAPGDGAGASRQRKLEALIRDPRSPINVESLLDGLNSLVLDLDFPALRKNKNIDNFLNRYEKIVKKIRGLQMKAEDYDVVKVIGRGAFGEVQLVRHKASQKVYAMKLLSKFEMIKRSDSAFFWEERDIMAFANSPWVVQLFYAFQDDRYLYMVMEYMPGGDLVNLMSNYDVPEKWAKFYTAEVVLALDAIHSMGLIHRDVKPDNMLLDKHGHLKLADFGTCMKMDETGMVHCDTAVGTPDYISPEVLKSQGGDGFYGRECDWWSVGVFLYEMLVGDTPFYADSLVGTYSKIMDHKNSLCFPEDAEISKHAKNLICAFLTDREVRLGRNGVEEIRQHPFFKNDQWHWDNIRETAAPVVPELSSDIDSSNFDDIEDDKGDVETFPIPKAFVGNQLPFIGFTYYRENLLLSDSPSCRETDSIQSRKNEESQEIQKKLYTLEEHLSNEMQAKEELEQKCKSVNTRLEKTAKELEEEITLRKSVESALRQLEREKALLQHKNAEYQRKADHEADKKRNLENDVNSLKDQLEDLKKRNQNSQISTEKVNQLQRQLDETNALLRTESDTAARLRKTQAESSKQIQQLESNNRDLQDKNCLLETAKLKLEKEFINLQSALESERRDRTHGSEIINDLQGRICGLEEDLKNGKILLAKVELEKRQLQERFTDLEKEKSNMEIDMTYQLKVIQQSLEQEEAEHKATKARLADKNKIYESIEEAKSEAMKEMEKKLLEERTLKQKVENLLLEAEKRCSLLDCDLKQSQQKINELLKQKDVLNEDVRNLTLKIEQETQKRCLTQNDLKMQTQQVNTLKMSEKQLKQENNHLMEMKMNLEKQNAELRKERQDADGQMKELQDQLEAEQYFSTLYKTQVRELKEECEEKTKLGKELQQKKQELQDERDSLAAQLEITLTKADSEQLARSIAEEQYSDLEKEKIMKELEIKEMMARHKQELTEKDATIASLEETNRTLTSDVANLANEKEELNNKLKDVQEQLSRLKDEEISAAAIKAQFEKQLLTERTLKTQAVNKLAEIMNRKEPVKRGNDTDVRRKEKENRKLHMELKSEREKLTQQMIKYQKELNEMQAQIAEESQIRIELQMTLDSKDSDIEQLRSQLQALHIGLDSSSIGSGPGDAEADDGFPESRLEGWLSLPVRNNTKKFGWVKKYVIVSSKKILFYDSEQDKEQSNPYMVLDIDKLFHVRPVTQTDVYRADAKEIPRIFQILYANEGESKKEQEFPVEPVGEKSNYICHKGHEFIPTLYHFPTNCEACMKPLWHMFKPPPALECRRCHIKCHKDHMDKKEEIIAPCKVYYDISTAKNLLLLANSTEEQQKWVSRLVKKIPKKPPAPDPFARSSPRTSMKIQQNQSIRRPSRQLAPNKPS
Sequence of Ribosomal protein S6 kinase alpha-5 (Homo sapiens) (O75582 whole entry, looked up): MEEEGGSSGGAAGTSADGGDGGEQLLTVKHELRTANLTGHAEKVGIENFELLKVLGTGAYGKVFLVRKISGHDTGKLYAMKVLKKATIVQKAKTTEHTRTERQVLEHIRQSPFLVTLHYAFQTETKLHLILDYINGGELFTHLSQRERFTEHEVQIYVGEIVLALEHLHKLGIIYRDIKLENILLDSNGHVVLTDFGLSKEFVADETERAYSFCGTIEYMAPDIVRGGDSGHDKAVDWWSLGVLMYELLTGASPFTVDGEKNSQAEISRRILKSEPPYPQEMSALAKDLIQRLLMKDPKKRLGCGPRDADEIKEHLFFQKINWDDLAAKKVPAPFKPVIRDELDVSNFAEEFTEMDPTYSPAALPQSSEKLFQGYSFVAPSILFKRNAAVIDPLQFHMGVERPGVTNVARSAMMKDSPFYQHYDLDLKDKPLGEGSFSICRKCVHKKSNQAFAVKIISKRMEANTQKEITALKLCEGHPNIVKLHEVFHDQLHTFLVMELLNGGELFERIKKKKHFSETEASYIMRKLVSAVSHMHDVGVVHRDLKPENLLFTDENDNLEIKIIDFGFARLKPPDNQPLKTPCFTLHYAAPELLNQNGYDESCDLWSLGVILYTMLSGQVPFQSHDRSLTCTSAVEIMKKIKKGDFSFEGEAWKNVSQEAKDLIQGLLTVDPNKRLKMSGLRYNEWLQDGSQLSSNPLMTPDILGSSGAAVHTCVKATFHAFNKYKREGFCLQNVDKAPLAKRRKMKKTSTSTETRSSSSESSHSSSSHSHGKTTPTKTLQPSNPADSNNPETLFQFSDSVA
Sequence of Cyclin-dependent kinase 8 (P49336 whole entry): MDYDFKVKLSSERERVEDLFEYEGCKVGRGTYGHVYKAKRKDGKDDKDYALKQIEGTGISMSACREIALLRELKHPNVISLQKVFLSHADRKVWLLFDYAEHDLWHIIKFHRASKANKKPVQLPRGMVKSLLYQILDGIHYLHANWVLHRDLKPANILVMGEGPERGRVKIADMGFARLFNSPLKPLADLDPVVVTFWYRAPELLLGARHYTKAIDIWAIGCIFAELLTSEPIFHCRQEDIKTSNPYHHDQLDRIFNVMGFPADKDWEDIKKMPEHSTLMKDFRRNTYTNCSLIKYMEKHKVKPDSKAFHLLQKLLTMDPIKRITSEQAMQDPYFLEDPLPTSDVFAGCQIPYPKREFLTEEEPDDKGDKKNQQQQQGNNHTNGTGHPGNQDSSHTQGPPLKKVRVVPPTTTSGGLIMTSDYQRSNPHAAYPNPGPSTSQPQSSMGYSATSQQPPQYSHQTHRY
Sequence of Casein kinase I isoform delta (P48730 whole entry, looked up, canonical isoform): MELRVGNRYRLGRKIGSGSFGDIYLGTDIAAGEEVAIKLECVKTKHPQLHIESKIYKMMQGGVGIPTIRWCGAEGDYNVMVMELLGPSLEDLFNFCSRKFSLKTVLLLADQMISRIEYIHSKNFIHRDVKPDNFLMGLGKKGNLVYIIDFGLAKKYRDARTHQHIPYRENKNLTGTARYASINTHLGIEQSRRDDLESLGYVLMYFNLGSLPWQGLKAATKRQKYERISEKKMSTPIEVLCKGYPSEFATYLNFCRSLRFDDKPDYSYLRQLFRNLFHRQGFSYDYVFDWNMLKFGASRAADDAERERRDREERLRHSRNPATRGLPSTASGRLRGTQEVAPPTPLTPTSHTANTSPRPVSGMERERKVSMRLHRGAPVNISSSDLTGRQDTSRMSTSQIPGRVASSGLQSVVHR

For the compound `CCC(=O)N1CCN(c2ccc(-n3c(=O)ccc4cnc5ccc(-c6cnc7ccccc7c6)cc5c43)cc2C(F)(F)F)CC1`, the % of control in assay [1] amounted to 100%. Take `Cn1cc(-n2cnc3c(NCc4nc5cc(Cl)c(Cl)cc5[nH]4)nc(N4CCOCC4)nc32)cn1`: the % of control in assay [2] is -1.93%. In the case of `CC[C@@H]1[C@H](F)C(=O)N[C@@H]1COc1nccc2cc(C(N)=O)c(OC)cc12` [ZIMLOVISERTIB], the % of inhibition in assay [3] came out at 40.1%.

Regarding `COc1cc(N(C)c2ccnc3ccc(C(F)(F)F)cc23)cc(OC)c1OC`, the % binding in assay [4] is 63%. `CN(C(=O)c1cnn2cccnc12)c1cc2c(cc1N1CCOCC1)C(=O)N(C[C@@H](F)C(C)(C)O)C2` gave a dTM in assay [5] of -0.9 K. As for `COCC(=O)NC/C=C/c1ccc2ncnc(Nc3ccc(Oc4ccc(C)nc4)c(C)c3)c2c1` [CP-724714], the % of control in assay [6] is 100%. Turning to `N#Cc1cccc(-c2c[nH]c3ncnc(N4CCOCC4)c23)c1`, the % of control in assay [7] was 100%; in assay [8] it was 64%.
